Experimental findings from PMC6178619, “Arylvinylpiperazine Amides, a New Class of Potent Inhibitors Targeting QcrB of Mycobacterium tuberculosis” (mBio, 2018) are described below.

Common to all, as to format: cell-based, Mycobacterium tuberculosis
Experiment [1] has as its system AX-resistant mutants of M. tuberculosis H37Rv.
Experiment [2] has as its system AX-resistant mutants of M. tuberculosis H37Rv (QcrB S182P, M342V, M342I).
Experiment [3] deals with Q203-resistant strain of M. tuberculosis H37Rv (QcrB T313A).
Experiment [4] deals with LPZS-resistant strain of M. tuberculosis H37Rv (QcrB L176P).
Experiment [5] concerns H37Rv Δcyd KO with a QcrB(A317V) mutation.

On to `O=C(/C=C/c1ccsc1)N1CCN(Cc2ccc3c(c2)OCO3)CC1` [AX-36, (E)-1-(4-(Benzo[d][1,3]dioxol-5-ylmethyl)piperazin-1-yl)-3-(thiophen-3-yl)prop-2-en-1-one], for which the “Intracellular ATP level” value in experiment [1] is “essentially unaffected”. In addition, the “Increase in MIC compared to parental strain H37Rv” value in experiment [2] is reported as 50 fold. The Cross-resistance entry in experiment [3] and in experiment [4] was “cross-resistant” in each case.
`O=C(/C=C/c1cccs1)N1CCN(Cc2ccc3c(c2)OCO3)CC1` [AX-35, (E)-1-(4-(Benzo[d][1,3]dioxol-5-ylmethyl)piperazin-1-yl)-3-(thiophen-2-yl)prop-2-en-1-one]: the “Intracellular ATP level” value in experiment [1] was “essentially unaffected”. For the same compound, the “OCR change from basal on compound addition” value in experiment [5] was “decreases”. Further, in experiment [2], the “Increase in MIC compared to parental strain H37Rv” value is listed as 50 fold. In addition, the Cross-resistance result in experiment [3] and in experiment [4] was “cross-resistant” in each case.
For `COc1nc2ccc(Br)cc2cc1[C@@H](c1ccccc1)[C@@](O)(CCN(C)C)c1cccc2ccccc12` [BDQ, bedaquiline, reference compound], the “Intracellular ATP level” value in experiment [1] is recorded as “depleted”.
Take `CCc1nc2ccc(Cl)cn2c1C(=O)NCc1ccc(N2CCC(c3ccc(OC(F)(F)F)cc3)CC2)cc1` [Compound Q203, reference compound]: in experiment [1], the “Intracellular ATP level” value is reported as “depleted”. The “OCR change from basal on compound addition” value in experiment [5] was “unaffected”.
